Two compounds from patent US4942159A, “Cephem compounds, their production and use” (Takeda Chemical Industries, Ltd., priority 1987, dated 1990) can be followed below.

In brackets after ≈: the same amount, converted by molar mass. Several values for one entry are separate records, joined by “and”; a condition that tells them apart may be missing. Identical values can stand only once.

For data set [1], the system named is Staphylococcus aureus 1840. Nature of the data set: MIC by agar dilution method (Trypticase soy agar), Staphylococcus aureus 1840. Format: cell-based. Particulars: (2) Staphylococcus aureus 1840, 37° C. overnight. Here is the method: (§1) The MIC of each test compound (the compounds obtained in Examples 1 and 2) was determined by the agar dilution method. Thus, 1.0 ml aliquots of serial dilutions of the test compound in water were poured into petri dishes, and 9.0 ml of Trypticase soy agar is added to each dish and stirred. A suspension (about 10^8 CFU/ml) of each test organism is smeared on each agar plate, which is then incubated at 37° C. overnight. The lowest concentration of the test compound which causes a complete growth inhibition of the test organism was determined and taken as the MIC (minimal inhibitory concentration) against the same organism.
(2) Staphylococcus aureus 1840
Background: Agar dilution tests growth on a series of plates holding different concentrations.

Data set [2] deals with Staphylococcus aureus 308 A-1. Description: MIC by agar dilution method (Trypticase soy agar), Staphylococcus aureus 308 A-1. Format: cell-based. Conditions: 308A1, 37° C. overnight. Here is the method: as §1
(1) Staphylococcus aureus 308 A-1

A short description of data set [3]: concentration levels in plasma upon rectal administration (suppository), by biological assay. Format: in vivo, rat (Wistar. Conditions: rectal suppository 50 mg/kg, fasted male Wistar rats. Here is the method: Employing the compound (I) prepared in Example 1 mentioned below, the concentration levels in plasma (plasma levels of said compound) upon rectal administration were measured by the procedure described below.
Suppositories containing the product of Example 1 which were prepared according to Example 3 mentioned below were given (50 mg/kg in terms of said product) into the rectum of three male rats No. 1 to 3 (Wistar, body weight of 300 to 400 g) being fasted for 20 hours. The anuses were closed with an adhesive agent, and blood sample were taken from the tail veins after 0.5, 1, 2 and 4 hours to determine quantitatively the plasma levels of the product of Example 1 by means of the biological assay method. As the test microorganisms for the assay, Escherichia coli NIHJ and Proteus rettgeri ATCC 9250 were employed.
A 250 mg portion of finely divided 7β-[2-(5-amino-1,2,4-thiadiazol-3-yl)-(Z)-2-methoxyiminoacetamido]-3- [(6-aminoimidazo[1,2-b]pyridazinium-1-yl)methyl]-3-cephem-4-carboxylate and 4750 mg of Isocacao MO-5 (produced by Kao, Ltd. in Japan) were uniformly sitrred at 40° to 45° C. and cooled to 35° C. under stiring, followed by filling the mixture into a suppository container made of plastics and gradually cooling to obtain a suppository.

Data set [4] concerns Pseudomonas aeruginosa P 9. Description: MIC by agar dilution method (Trypticase soy agar), Pseudomonas aeruginosa P 9. Format: cell-based. Particulars: P9, (4) Pseudomonas aeruginosa P 9, 37° C. overnight. Here is the method: as §1
(4) Pseudomonas aeruginosa P 9

Data set [5] deals with Proteus morganii IFO 3168. Nature of the data set: MIC by agar dilution method (Trypticase soy agar), Proteus morganii IFO 3168. Particulars: Morganella morganii, IFO3168, (3) Proteus morganii IFO 3168, 37° C. overnight. Format: cell-based. On the procedure:
as §1
(3) Proteus morganii IFO 3168

In the case of `CO/N=C(\C(=O)N[C@@H]1C(=O)N2C(C(=O)[O-])=C(C[n+]3ccn4nc(N)ccc43)CS[C@H]12)c1nsc(N)n1` [Example 1, 7β-[2-(5-amino-1,2,4-thiadiazol-3-yl)-(Z)-2-methoxyiminoacetamide]-3-[(6-aminoimidazo[1,2-b]pyridazinium-1-yl)methyl]-3-cephem-4-carboxylate], the MIC (commonly the least concentration at which growth counts as inhibited) came out at 0.78 µg/mL (≈ 1.47 µM) in data set [1], 0.39 µg/mL (≈ 0.735 µM) in data set [2], 0.39 µg/mL (≈ 0.735 µM) in data set [4] and 0.2 µg/mL (≈ 0.377 µM) in data set [5]. Further, in data set [3] (0.5 hr, individual rats: No. 1, No. 2, No. 3, 30 min), the “Concentration levels in plasma, 0.5 hr” value was 130 ng/mL and 2400 ng/mL and 5700 ng/mL. Further, in data set [3] (1 hr, individual rats: No. 1, No. 2, No. 3, 60 min), the “Concentration levels in plasma, 1 hr” value was 740 ng/mL and 4200 ng/mL and 5900 ng/mL. In data set [3] (2 hr, individual rats: No. 1, No. 2, No. 3, 120 min), the “Concentration levels in plasma, 2 hr” value was 1700 ng/mL and 4600 ng/mL and 2700 ng/mL. Also, the “Concentration levels in plasma, 4 hr” value in data set [3] (4 hr, individual rats: b116 = No. 1, b117 = No. 2 (No. 3 not tested), 240 min) is 2800 ng/mL. The compound also displayed a concentration at 4 h in data set [3] (rat, plasma, 50 mg/kg, 4 hr, individual rats: b116 = No. 1, b117 = No. 2 (No. 3 not tested)) of 4300 ng/mL.

As to `CCO/N=C(\C(=O)N[C@@H]1C(=O)N2C(C(=O)[O-])=C(C[n+]3ccn4nc(N)ccc43)CS[C@H]12)c1nsc(N)n1` [Example 2, 7β-[2-(5-amino-1,2,4-thiadiazol-3-yl)-(Z)-2-ethoxyiminoacetamido]-3-[(6-aminoimidazo[1,2-b]pyridazinium-1-yl)methyl]-3-cephem-4-carboxylate], the MIC in data set [1] was 0.78 µg/mL (≈ 1.43 µM); in data set [2], 0.39 µg/mL (≈ 0.716 µM); in data set [4] it was 0.78 µg/mL (≈ 1.43 µM); in data set [5] it was 0.39 µg/mL (≈ 0.716 µM).
